Data as given in ChEMBL document CHEMBL1201862, “PubChem BioAssay data set” (2004).
Active and inactive are the calls of the source. The rule behind the calls is not given here.

Key:
[1] = molecular target: T1, High affinity choline transporter 1 (Homo sapiens, UniProt Q9GZV3); assay: human choline transporter blockers, potency – cell-based, 10-point CRC, membrane potential dye, dose response (AID 588401); format: functional;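 note: membrane potential dye fluorescence of choline-evoked depolarization via CHT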
T1 sequence (Q9GZV3 whole entry): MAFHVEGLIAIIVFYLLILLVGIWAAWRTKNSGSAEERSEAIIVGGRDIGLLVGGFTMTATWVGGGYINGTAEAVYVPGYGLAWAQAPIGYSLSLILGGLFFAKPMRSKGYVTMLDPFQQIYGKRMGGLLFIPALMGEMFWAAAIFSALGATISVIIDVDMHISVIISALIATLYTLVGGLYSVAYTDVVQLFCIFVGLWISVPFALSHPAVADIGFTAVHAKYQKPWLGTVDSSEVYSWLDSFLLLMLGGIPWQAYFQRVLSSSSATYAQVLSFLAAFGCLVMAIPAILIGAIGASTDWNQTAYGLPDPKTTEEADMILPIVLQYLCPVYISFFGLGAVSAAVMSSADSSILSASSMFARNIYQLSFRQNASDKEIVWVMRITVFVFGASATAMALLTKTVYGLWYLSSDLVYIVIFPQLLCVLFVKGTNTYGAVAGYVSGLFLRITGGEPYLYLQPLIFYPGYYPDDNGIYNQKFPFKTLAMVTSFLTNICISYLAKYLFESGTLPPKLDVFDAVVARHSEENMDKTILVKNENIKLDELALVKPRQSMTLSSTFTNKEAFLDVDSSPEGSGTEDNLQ

[2] = molecular target: T1, High affinity choline transporter 1; assay: human choline transporter blockers, potency – cell-based, 5-point CRC, membrane potential dye, dose response (AID 504840); format: functional

Compound: CC1=NOC(=O)/C1=C/c1ccc(O)c(Br)c1
- IC50 [1]: 3.98 µM (active)
- IC50 [2]: 4.77 µM (active)
